The nature of the data set: solvent given as SMILES.

For the compound `c1ccc2c(-c3cncnc3)c3ccccc3c(-c3cncnc3)c2c1`, the absorption maximum is, setting by setting: (in CCO) 394 nm; (in ClCCl) 397 nm.
With `CCCCN(CCCC)c1ccc(C#Cc2cc(C#Cc3ccc(N(CCCC)CCCC)cc3)c(C#Cc3c(F)c(F)c(F)c(F)c3F)cc2C#Cc2c(F)c(F)c(F)c(F)c2F)cc1`, the absorption maximum (in ClCCl) is recorded as 438 nm.
Compound `c1ccc(-c2nc(-c3nc(-c4ccccc4)c(-c4ccccc4)o3)oc2-c2ccccc2)cc1` registered an absorption maximum (in C1COCCO1) of 343 nm.
In turn, `C[n+]1cc2ccc3c[n+](C)c4ccccc4c3c2c2ccccc21` came in with an absorption maximum (in CC#N) of 465 nm.
Compound `BrC1=CN2C[n+]3cc(Br)cc(Br)c3N=C2C(Br)=C1` had an absorption maximum (in CS(C)=O) of 449 nm.
The compound `c1cc2oc3cccc4oc5cccc6oc(c1)c2[c+](c34)c65` displayed an absorption maximum (in CC#N) of 481 nm.
In the case of `CCOc1ccc2c(-c3nc(-c4cccc(Br)c4)no3)cc(=O)oc2c1`, the absorption maximum is, setting by setting: (in CCO) 388 nm; (in ClC(Cl)Cl) 403 nm.
Consider `CC[n+]1c(-c2ccccc2)c2cc(NC(=O)NCC[NH3+])ccc2c2ccc(NC(=O)NCC[NH3+])cc21`, for which the absorption maximum (in O) amounted to 438 nm.
In the case of `Fc1c(F)c(-n2c3ccccc3c3ccccc32)c(F)c(F)c1-c1nnc(-c2ccccc2)o1`, for the setting “in Cc1ccccc1”, the absorption maximum came out at 344 nm.
Compound `Fc1c(-n2c3ccccc3c3ccccc32)c(F)c(-n2c3ccccc3c3ccccc32)c(-c2nnc(-c3ccccc3)o2)c1-n1c2ccccc2c2ccccc21` registered an absorption maximum (in Cc1ccccc1) of 345 nm.
For the compound `CC[N+]1(CC)CN2C(=N1)C(C(=O)O)=Cc1ccc(C)cc12`, the absorption maximum (in O) is 370 nm.
As for `N#Cc1c(/C=C/c2ccc(N(c3ccccc3)c3ccccc3)cc2)cc(-c2cccs2)cc1N1CCCCC1`, where the note is “in CS(C)=O”, the absorption maximum is listed as 404 nm.
As to `COC(=O)/C=C/c1sc(-c2ccc(N(C)C)s2)c(-c2cn(C)c3ccccc23)c1O`, the absorption maximum (in CC#N) was 478 nm.
Take `Cc1cc(-c2nc(-c3ccccc3)nc(-c3ccccc3)n2)ccc1-n1c2ccccc2c2cc3c(cc21)C1c2ccccc2C3c2ccccc21`: under “in Cc1ccccc1”, the absorption maximum is reported as 364 nm.
In the case of `O=C1/C(=C2\Sc3ccc(S(=O)(=O)O)cc3C2=O)Sc2ccc(S(=O)(=O)O)cc21`, the absorption maximum by setting is: (in C1COCCO1) 530 nm; (in CN(C)C=O) 551 nm; (in CO) 553 nm; (in CS(C)=O) 553 nm; (in O) 546 nm.
The compound `c1ccc(C2(c3ccccc3)c3ccc4ccc5ccccc5c4c3-c3c2ccc2ccc4ccccc4c32)cc1` gave an absorption maximum (in ClCCl) of 408 nm.
On to `N#Cc1nc2c3ccc(-n4c5ccccc5c5ccccc54)cc3c3cc(-n4c5ccccc5c5ccccc54)ccc3c2nc1C#N`, for which, where the note is “in Cc1ccccc1”, the absorption maximum is 442 nm.
In the case of `CN(C)c1ccc(/C=C/c2cc(/C=C/c3ccc(N(C)C)cc3)nc(/C=C/c3ccc(C(F)(F)F)cc3)n2)cc1`, the absorption maximum (in ClCCl) is 429 nm.
In the case of `CCCC1(CCC)c2cc(-c3ccc(C(C)(C)C)cc3)ccc2-c2ccc(-c3ccc4c(c3)C(CCC)(CCC)c3cc(-c5ccc6c(c5)C(CCC)(CCC)c5cc(-c7ccc(C(C)(C)C)cc7)ccc5-6)ccc3-4)cc21`, the absorption maximum (in C1CCCCC1) is 362 nm.
Consider `CCN(CC)c1ccc(C=Cc2nc3nc4ccccc4nc3s2)c(OC)c1`, for which, for the setting “in CO”, the absorption maximum is given as 485 nm.
Regarding `c1ccc(CO[Si]23n4c5c6ccccc6c4/N=C4N=C(/N=c6/c7ccccc7c(n62)=c2c6ccccc6c(n23)=N5)c2ccccc2\4)cc1` (centres undefined), the absorption maximum (in CN(C)C=O) turned out to be 658 nm.
As to `CC(C)(C)c1ccc2oc3nc4oc5ccc(N6c7ccccc7Sc7ccccc76)cc5c4cc3c2c1`, the absorption maximum (in ClC(Cl)Cl) was 348 nm.
The compound `CCOC(=O)c1c(-c2c(Cl)c3cc(C)ccc3oc2=O)nn(-c2cccc(C)c2)c1C(=O)OCC` came in with an absorption maximum (in ClCCl) of 331 nm.
The compound `Oc1cccc(-c2nc(-c3ccccc3)c(-c3ccccc3)[nH]2)c1` registered an absorption maximum (in CO) of 300 nm.
For the compound `CC(=O)O[B-]1(OC(C)=O)OC(/C=C/c2cccc3ccccc23)=CC(/C=C/c2cccc3ccccc23)=[O+]1`, the absorption maximum runs as follows: (in C1CCOC1) 464 nm; (in CC#N) 468 nm; (in CC(C)=O) 464 nm; (in CS(C)=O) 478 nm; (in Cc1ccccc1) 468 nm; (in ClC(Cl)Cl) 474 nm. For the same compound, the absorption maximum (in ClCCl) is given as 472 nm.
Take `CCCCCCn1c(=O)c2c3[nH]c4ccccc4oc3c3c(=O)n(CCCCCC)c(=O)c3c2c1=O`: where the note is “in ClCCl”, the absorption maximum worked out at 454 nm.
On the same count and under the same terms, to `CCCN1c2ccc(C#CC3=C4C=CC=[N+]4[B-](F)(F)n4cccc43)cc2Sc2cc(C#CC3=C4C=CC=[N+]4[B-](F)(F)n4cccc43)ccc21` belongs 542 nm.
In turn, `CCCCCC(=O)Oc1cc2[nH]c(cc2CCOC)c2nc(ccc3[nH]c(cc3CCOC)c3nc1C(CCOC)=C3)C(CCOC)=C2` returned an absorption maximum (in Cc1ccccc1) of 646 nm.
In the case of `CCOC(=O)c1c(-c2cc3ccc(OC)cc3oc2=O)nn(-c2ccccc2)c1C(=O)OCC`, the absorption maximum (in ClCCl) is given as 337 nm.
For the setting “in C1CCOC1”, `c1ccc(-c2nc(-c3ccc(-c4cncc5ccccc45)cc3)[nH]c2-c2ccccc2)cc1` gave an absorption maximum of 333 nm.
As to `COc1ccc(C2C3=C(CCCC3=O)Nc3c2c(=O)oc2ccccc32)cc1` (centres undefined), where the note is “in CS(C)=O”, the absorption maximum is on record as 361 nm.
The compound `CC(C)(C)c1cc(-c2c3cc(c(-c4cc(C(C)(C)C)cc(C(C)(C)C)c4)c4ccc([nH]4)c(-c4ccc(Br)cc4)c4nc(c(-c5ccc(Br)cc5)c5ccc2[nH]5)C=C4)N=C3)cc(C(C)(C)C)c1` had an absorption maximum (in ClCCl) of 726 nm.
Same read-out and setting: to `CCCCC1C(=O)c2cc(Oc3ccc(C(C)(C)C)cc3)c3c4c(Oc5ccc(C(C)(C)C)cc5)cc5c6c(cc(Oc7ccc(C(C)(C)C)cc7)c(c7c(Oc8ccc(C(C)(C)C)cc8)cc(c2c37)C1=O)c64)C1=C(C5=O)c2ccc3ccccc3[n+]2[B-](F)(F)O1` (centres undefined) belongs 616 nm.
In the case of `N#CC(C#N)=Cc1cn(-c2ccccc2)nc1-c1ccc([N+](=O)[O-])cc1`, the absorption maximum (in C1CCOC1) is 346 nm; the absorption maximum (in C1COCCO1) is on record as 346 nm; the absorption maximum (in CCO) is given as 346 nm; the absorption maximum (in CCOC(C)=O) is on record as 346 nm; the absorption maximum (in CN(C)C=O) is on record as 347 nm; the absorption maximum (in CO) was found to be 345 nm. Further, the absorption maximum turned out to be 343 nm (in CS(C)=O), 356 nm (in Cc1ccccc1) and 352 nm (in ClC(Cl)Cl).
Compound `COc1ccc(C2=[N+]3C(=Nc4c(C)cc(-c5ccc(OC)cc5)n4[B-]3(F)F)C(C)=C2)cc1` yielded an absorption maximum (in CS(C)=O) of 656 nm.
Turning to `CCC1=C(C)C2=Cc3cc(I)c(I)n3[B-](F)(F)[N+]2=C1C`, the absorption maximum reads like this: (in C1CCCCC1) 542 nm; (in CC(C)=O) 524.5 nm; (in CCO) 529 nm; (in CCOC(C)=O) 528 nm; (in CO) 526.5 nm; (in OCC(F)(F)F) 520 nm.
Compound `COc1ccc(C#CC2=C3CCc4ccccc4C3=[O+][B-](F)(F)O2)cc1` had an absorption maximum (in ClCCl) of 446 nm.
Compound `Cc1ccc(-c2nc(-c3cccc(C#N)c3)[nH]c2-c2ccc(C)cc2)cc1` came in with an absorption maximum (in CO) of 315 nm.
`c1ccc(-n2c(-c3cccc4ccccc34)nc3c4ccccc4c4ccccc4c32)cc1` showed an absorption maximum (in Cc1ccccc1) of 356 nm.
`N#Cc1ccc(C=C(c2ccccc2)c2ccccc2)cc1`: the absorption maximum (in C1CCOC1) stood at 321 nm.
Consider `Cc1ccc(C2=Cc3c4ccccc4c4ccccc4[n+]3[B-](F)(F)O2)cc1`, for which, under “in ClC(Cl)Cl”, the absorption maximum was 437 nm.
The compound `COc1ccc(N(c2ccccc2)c2cc3ccc4cc(N(c5ccccc5)c5ccc(OC)cc5)cc5ccc(c2)c3c45)cc1` showed an absorption maximum (in Cc1ccccc1) of 453 nm.
`COC(C)CC1=N/C(=C\c2cccc(N(C)C)c2)C(=O)N1C` (centres undefined): the absorption maximum is, setting by setting: (in C1CCOC1) 355 nm; (in CC#N) 355 nm; (in CCCCCC) 354 nm.
Under “in ClCCl”, `CC(C)(C)c1cc(C#Cc2ccc3c(C#Cc4cc(C(C)(C)C)cc(C(C)(C)C)c4)cc4c5cc(C#Cc6cc(C(C)(C)C)cc(C(C)(C)C)c6)ccc5c(C#Cc5cc(C(C)(C)C)cc(C(C)(C)C)c5)cc4c3c2)cc(C(C)(C)C)c1` registered an absorption maximum of 416 nm.
For the compound `c1ccc(-n2nc(-c3ccc(N4c5ccccc5Sc5ccccc54)cc3)nc2-c2ccccn2)cc1`, where the note is “in ClCCl”, the absorption maximum was found to be 329 nm.
Consider `COc1ccc(-c2nc(/C(C#N)=C/c3ccc(C#N)cc3)sc2-c2ccc(OC)cc2)cc1`, for which, under “in CC#N”, the absorption maximum is 407 nm.
`Cc1ccc(C2=C3C=C4C(=[N+]3[B-](F)(F)n3c2cc2c3-c3ccccc3C23c2ccccc2-c2ccccc23)c2ccccc2C42c3ccccc3-c3ccccc32)cc1` yielded an absorption maximum (in C1CCOC1) of 634 nm.
Consider `Cc1ccc(/C2=C3N=C(C(c4ccccc4)=C/3c3ccccc3)/C(c3ccc(C)cc3)=c3\[nH]/c(c(-c4ccccc4)c3-c3ccccc3)=C(/c3ccc(C)cc3)C3=N/C(=C(/c4ccc(C)cc4)c4[nH]c2c(-c2ccccc2)c4-c2ccccc2)C(c2ccccc2)=C3c2ccccc2)cc1`, for which the absorption maximum (in ClCCl) is 721 nm.
`CC(C)n1c2cc(O)c(F)cc2c(=O)c2cc(F)c(O)cc21` yielded an absorption maximum (in CCO) of 379 nm.
Under “in O”, `c1ccc2c[n+]3ccccc3cc2c1` displayed an absorption maximum of 396 nm.
In turn, `CCCC1(CCC)c2cc(-c3ccc(C(C)(C)C)cc3)ccc2-c2ccc(-c3ccc4c(c3)C(CCC)(CCC)c3cc(-c5ccc6c(c5)C(CCC)(CCC)c5cc(-c7ccc8c(c7)C(CCC)(CCC)c7cc(-c9ccc(C(C)(C)C)cc9)ccc7-8)ccc5-6)ccc3-4)cc21` came in with an absorption maximum (in C1CCCCC1) of 366 nm.
Where the note is “in ClCCl”, `CC(=O)c1c(N[C@H](C(=O)O)C(C)C)c2ccc(N(C)C)cc2oc1=O` registered an absorption maximum of 371 nm.
Consider `CCN(CC)c1ccc(/C=N/Nc2ccc(C#N)cc2)c(O)c1`, for which the absorption maximum runs as follows: (in CC#N) 382 nm; (in CCCCCC) 384 nm; (in CO) 368 nm; (in CS(C)=O) 391 nm; (in ClC(Cl)Cl) 373 nm.
As to `CCNc1cc2oc3c/c(=[NH+]\CC)c(C)cc-3c(-c3ccccc3C(=O)OCC)c2cc1C`, the absorption maximum is, setting by setting: (in CC#N) 524 nm; (in CCO) 527 nm; (in CN(C)C=O) 534 nm; (in CO) 530 nm; (in O) 525 nm.

Values taken from the Deep4Chem optical property database.
